Laboratory results reported in patent publication US7932270B2 (Cytokinetics, Inc., priority 2006, dated 2011).

Target: T1, chicken gizzard smooth muscle myosin subfragment-1 chemically crosslinked to cardiac or skeletal actin (Gallus gallus, UniProt P10587)
T1 construct: chicken gizzard smooth muscle myosin subfragment-1; from tissue; host or cells: chicken gizzard
Assay: Smooth muscle myosin ATPase dose response assay (pyruvate kinase/horseradish peroxidase/pyruvate oxidase-coupled, amplex red fluorescence)
Format: biochemical
Conditions: read-out: IC50 Arithmetic Mean
Outline: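 Inhibition is measured in a peroxidase/pyruvate oxidase-linked format at pH 7.00 and 22° C, 0.15 mM ATP final. Myosin input is titrated to a target turnover since active fraction differs between preparations.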

T1 sequence (P02607 2-151): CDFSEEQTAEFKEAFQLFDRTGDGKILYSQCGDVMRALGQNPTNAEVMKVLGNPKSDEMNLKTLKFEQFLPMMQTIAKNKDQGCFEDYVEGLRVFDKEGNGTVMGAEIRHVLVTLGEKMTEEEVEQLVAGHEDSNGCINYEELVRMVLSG
T1 sequence (P10587 84-789): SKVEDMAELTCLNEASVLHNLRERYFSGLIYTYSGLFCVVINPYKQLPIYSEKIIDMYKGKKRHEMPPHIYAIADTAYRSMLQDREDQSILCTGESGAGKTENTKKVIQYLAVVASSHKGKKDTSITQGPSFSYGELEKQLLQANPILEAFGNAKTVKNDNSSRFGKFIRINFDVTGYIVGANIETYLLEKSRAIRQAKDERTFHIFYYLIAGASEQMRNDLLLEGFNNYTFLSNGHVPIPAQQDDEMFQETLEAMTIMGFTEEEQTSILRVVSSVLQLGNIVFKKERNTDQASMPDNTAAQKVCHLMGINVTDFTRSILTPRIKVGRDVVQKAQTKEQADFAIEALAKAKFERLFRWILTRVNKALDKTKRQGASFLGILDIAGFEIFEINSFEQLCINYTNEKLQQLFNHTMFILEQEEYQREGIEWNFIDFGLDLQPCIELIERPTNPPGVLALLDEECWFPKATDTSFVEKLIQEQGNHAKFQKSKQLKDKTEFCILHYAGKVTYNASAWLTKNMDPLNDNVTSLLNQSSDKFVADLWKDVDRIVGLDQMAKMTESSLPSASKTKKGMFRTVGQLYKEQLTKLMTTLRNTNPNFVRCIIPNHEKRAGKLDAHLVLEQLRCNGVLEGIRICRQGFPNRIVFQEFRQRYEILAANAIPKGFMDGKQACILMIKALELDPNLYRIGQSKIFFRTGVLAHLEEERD

SMILES	IC50 [µM]
C[C@@H](N)CNC(=O)c1cc(F)c(-c2cn[nH]c2)nc1NCCc1cccc(F)c1 [N-((2R)-2-aminopropyl)(5-fluoro-2-{[2-(3-fluorophenyl)ethyl]amino}-6-pyrazol-4-yl(3-pyridyl))carboxamide]	0.443
NCc1ncccc1CNC(=O)c1cc(F)c(-c2cc[nH]n2)nc1NCCc1cccc(F)c1 [N-{[2-(aminomethyl)(3-pyridyl)]methyl}(5-fluoro-2-{[2-(3-fluorophenyl)ethyl]amino}-6-pyrazol-3-yl(3-pyridyl))carboxamide]	0.014
Cc1cc(C(=O)NCc2cccnc2CNC(=O)OC(C)(C)C)c(NCCc2cccc(F)c2)nc1-c1cnn(C)c1 [N-[(2-{[(tert-butoxy)carbonylamino]methyl}(3-pyridyl))methyl](2-{[2-(3-fluorophenyl)ethyl]amino}-5-methyl-6-(1-methylpyrazol-4-yl)(3-pyridyl))carboxamide]	1.12
C[C@H](CNC(=O)c1cc(F)c(-c2cnn(C)c2)nc1NCCc1cccc(F)c1)C(C)(C)O [N-((2R)-3-hydroxy-2,3-dimethylbutyl)(5-fluoro-2-{[2-(3-fluorophenyl)ethyl]amino}-6-(1-methylpyrazol-4-yl)(3-pyridyl))carboxamide]	1.23
CC(C)NC(=O)c1ccc(-c2ccccc2)nc1NCCc1ccccn1 [N-(methylethyl){6-phenyl-2-[(2-(2-pyridyl)ethyl)amino](3-pyridyl)}carboxamide]	13.3
COC(=O)CNC[C@H](N)CNC(=O)c1ccc(-c2cnn(C)c2)nc1NCCc1cccc(F)c1 [methyl 2-({(2S)-2-amino-3-[(2-{[2-(3-fluorophenyl)ethyl]amino}-6-(1-methylpyrazol-4-yl)(3-pyridyl))carbonylamino]propyl}amino)acetate]	10.9
Cn1cc(-c2nc(NCCc3cccc(F)c3)c(C(=O)NC[C@H]3CCN3C(=O)C(C)(C)O)cc2F)cn1 [N-{[(2R)-1-(2-hydroxy-2-methylpropanoyl)azetidin-2-yl]methyl}(5-fluoro-2-{[2-(3-fluorophenyl)ethyl]amino}-6-(1-methylpyrazol-4-yl)(3-pyridyl))carboxamide]	0.141
O=C1CC[C@H](CNC(=O)c2ccc(-c3cn[nH]c3)nc2NCCc2cccc(F)c2)N1 [N-[((2R)-5-oxopyrrolidin-2-yl)methyl](2-{[2-(3-fluorophenyl)ethyl]amino}-6-pyrazol-4-yl(3-pyridyl))carboxamide]	0.119
O=C(NCc1cccnc1)c1ccc(-c2ccc(Cl)cc2)nc1NCCc1ccccn1 [{6-(4-chlorophenyl)-2-[(2-(2-pyridyl)ethyl)amino](3-pyridyl)}-N-(3-pyridylmethyl)carboxamide]	0.629
CC(C)(C)OC(=O)NCCN1CCCC1CNC(=O)c1ccc(-c2ccccc2C#N)nc1NCCc1cccc(F)c1 (centres unmarked) [N-[(1-{2-[(tert-butoxy)carbonylamino]ethyl}pyrrolidin-2-yl)methyl](6-(2-cyanophenyl)-2-{[2-(3-fluorophenyl)ethyl]amino}(3-pyridyl))carboxamide]	4.83
O=C(NCc1cccnc1)c1cc(C(=O)NCc2cccnc2)c(-c2ccccc2)nc1NCCc1cccc(F)c1 [(2-{[2-(3-fluorophenyl)ethyl]amino}-6-phenyl-5-[N-(3-pyridylmethyl)carbamoyl](3-pyridyl))-N-(3-pyridylmethyl)carboxamide]	56
O=Cc1ccccc1-c1ccc(C(=O)NCc2cccnc2)c(NCCc2ccccn2)n1 [{6-(2-formylphenyl)-2-[(2-(2-pyridyl)ethyl)amino](3-pyridyl)}-N-(3-pyridylmethyl)carboxamide]	8.75
CCCNc1nc(-c2ccccc2)ccc1C(=O)NCc1cccnc1 [[6-phenyl-2-(propylamino)(3-pyridyl)]-N-(3-pyridylmethyl)carboxamide]	11.4
Cn1cc(-c2nc(NCCc3cccc(F)c3)c(C(=O)NCc3cccnc3CNC(=O)OC(C)(C)C)cc2C#N)cn1 [N-[(2-{[(tert-butoxy)carbonylamino]methyl}(3-pyridyl))methyl](5-cyano-2-{[2-(3-fluorophenyl)ethyl]amino}-6-(1-methylpyrazol-4-yl)(3-pyridyl))carboxamide]	0.75
N#Cc1ccccc1-c1ccc(C(=O)NC[C@H]2CCCN2C(=O)CCCN)c(NCCC2CCCCO2)n1 (some centres unmarked)	2.04
C[C@H](CNC(=O)c1cc(F)c(-c2cn[nH]c2)nc1NCCc1cccc(F)c1)NC(=O)CN	0.122
Cn1cc(-c2nc(NCCc3cccc(F)c3)c(C(=O)NCc3cccnc3)cc2Br)cn1 [(5-bromo-2-{[2-(3-fluorophenyl)ethyl]amino}-6-(1-methylpyrazol-4-yl)(3-pyridyl))-N-(3-pyridylmethyl)carboxamide]	0.023
C[C@H](NC(=O)OC(C)(C)C)C(=O)N1CCC[C@@H]1CNC(=O)c1cc(F)c(-c2cnn(C)c2)nc1NCCc1cccc(F)c1 [N-[2-((2R)-2-{[(5-fluoro-2-{[2-(3-fluorophenyl)ethyl]amino}-6-(1-methylpyrazol-4-yl)(3-pyridyl))carbonylamino]methyl}pyrrolidinyl)(1S)-1-methyl-2-oxoethyl](tert-butoxy)carboxamide]	1.95
CC(C)(C)OC(=O)NCC(=O)N1CCC[C@H](CNC(=O)c2ccc(-c3ccccc3C#N)nc2NCCc2cccc(F)c2)C1 [N-[((3R)-1-{2-[(tert-butoxy)carbonylamino]acetyl}(3-piperidyl))methyl](6-(2-cyanophenyl)-2-{[2-(3-fluorophenyl)ethyl]amino}(3-pyridyl))carboxamide]	0.199
C[C@H](CNC(=O)c1cc(F)c(-c2cnn(C)c2)nc1NCCc1cccc(F)c1)NC(=O)[C@@H](N)CO	0.115
CC(C)(C)OC(=O)NCCCN1C(=O)CCCC1CNC(=O)c1ccc(-c2ccccc2C#N)nc1NCCc1cccc(F)c1 (centres unmarked) [N-[(1-{3-[(tert-butoxy)carbonylamino]propyl}-6-oxo(2-piperidyl))methyl](6-(2-cyanophenyl)-2-{[2-(3-fluorophenyl)ethyl]amino}(3-pyridyl))carboxamide]	0.877
C[C@H](CNC(=O)c1cc(F)c(-c2cnn(C)c2)nc1NCCc1cccc(F)c1)C(=O)O [(2R)-3-[(5-fluoro-2-{[2-(3-fluorophenyl)ethyl]amino}-6-(1-methylpyrazol-4-yl)(3-pyridyl))carbonylamino]-2-methylpropanoic acid]	3.84
N#Cc1cc(C(=O)NC[C@H]2CCCN2)c(NCCc2cccc(F)c2)nc1-c1cn[nH]c1 [N-[((2R)pyrrolidin-2-yl)methyl](5-cyano-2-{[2-(3-fluorophenyl)ethyl]amino}-6-pyrazol-4-yl(3-pyridyl))carboxamide]	0.624

Further lines, results first:

IC50 [µM]	SMILES
0.095	N#Cc1ccccc1-c1ccc(C(=O)NCC2CCCCC(=O)N2)c(NCCc2cccc(F)c2)n1 (centres unmarked) [(6-(2-cyanophenyl)-2-{[2-(3-fluorophenyl)ethyl]amino}(3-pyridyl))-N-[(7-oxoazaperhydroepin-2-yl)methyl]carboxamide]
1.24	N#Cc1ccccc1-c1ccc(C(=O)NCCCCCCN)c(NCCc2cccc(F)c2)n1 [N-(6-aminohexyl)(6-(2-cyanophenyl)-2-{[2-(3-fluorophenyl)ethyl]amino}(3-pyridyl))carboxamide]
0.101	COC(=O)N1CCC[C@@H]1CNC(=O)c1ccc(-c2ccccc2C#N)nc1NCCc1cccc(F)c1 [methyl (2R)-2-{[(6-(2-cyanophenyl)-2-{[2-(3-fluorophenyl)ethyl]amino}(3-pyridyl))carbonylamino]methyl}pyrrolidinecarboxylate]
0.015	N#Cc1ccccc1-c1ccc(C(=O)NC[C@H]2CCCC(=O)N2)c(NCCc2cccc(F)c2)n1 [N-[((2R)-6-oxo(2-piperidyl))methyl](6-(2-cyanophenyl)-2-{[2-(3-fluorophenyl)ethyl]amino}(3-pyridyl))carboxamide]
0.054	Cc1cccc(CNC(=O)c2ccc(-c3ccccc3C#N)nc2NCCc2cccc(F)c2)n1 [(6-(2-cyanophenyl)-2-{[2-(3-fluorophenyl)ethyl]amino}(3-pyridyl))-N-[(6-methyl(2-pyridyl))methyl]carboxamide]
0.634	NCCn1nccc1CNC(=O)c1ccc(-c2cc[nH]n2)nc1NCCc1cccc(F)c1 [N-{[1-(2-aminoethyl)pyrazol-5-yl]methyl}(2-{[2-(3-fluorophenyl)ethyl]amino}-6-pyrazol-3-yl(3-pyridyl))carboxamide]
0.412	N#Cc1ccccc1-c1ccc(C(=O)NCC2CCCN(CCN=[N+]=[N-])C2=O)c(NCCc2cccc(F)c2)n1 (centres unmarked) [(6-(2-cyanophenyl)-2-{[2-(3-fluorophenyl)ethyl]amino}(3-pyridyl))-N-{[1-(3-diazo-3-azaprop-3-enyl)-2-oxo(3-piperidyl)]methyl}carboxamide]
0.154	N#Cc1ccccc1-c1ccc(C(=O)NCCCCCN)c(NCCc2cccc(F)c2)n1 [N-(5-aminopentyl)(6-(2-cyanophenyl)-2-{[2-(3-fluorophenyl)ethyl]amino}(3-pyridyl))carboxamide]
1.63	CS(=O)(=O)N1CCCC[C@H]1CNC(=O)c1ccc(-c2ccccc2C#N)nc1NCCc1cccc(F)c1 [N-{[(2S)-1-(methylsulfonyl)(2-piperidyl)]methyl}(6-(2-cyanophenyl)-2-{[2-(3-fluorophenyl)ethyl]amino}(3-pyridyl))carboxamide]
13.2	N#Cc1ccccc1-c1ccc(CC(=O)NCc2cccnc2)c(NCCc2cccc(F)c2)n1 [2-(6-(2-cyanophenyl)-2-{[2-(3-fluorophenyl)ethyl]amino}(3-pyridyl))-N-(3-pyridylmethyl)acetamide]
0.214	CN1CCC[C@@H]1CNC(=O)c1ccc(-c2ccccc2C#N)nc1NCCc1cccc(F)c1 [N-[((2R)-1-methylpyrrolidin-2-yl)methyl](6-(2-cyanophenyl)-2-{[2-(3-fluorophenyl)ethyl]amino}(3-pyridyl))carboxamide]
0.032	Cn1ccc(CNC(=O)c2ccc(-c3ccccc3C#N)nc2NCCc2cccc(F)c2)n1 [(6-(2-cyanophenyl)-2-{[2-(3-fluorophenyl)ethyl]amino}(3-pyridyl))-N-[(1-methylpyrazol-3-yl)methyl]carboxamide]
